For orientation: viability, T/C means the ratio of treated to control. One may read the IC50 as the point on the concentration scale where inhibition reaches its midpoint.

Several values for one entry are separate records, joined by “and”; a condition that tells them apart may be missing. Equal values may be shown once.

The results in this text go back to PubChem BioAssay AID1918941 (Molecular Pharmacology Branch, DTP, NCI, 2023).

The test concerns SW 1271 complex spheroids, viability. Nature of the test: Anticancer human tumor SW 1271 cell line growth inhibition [LSD1].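 As to all read-outs here: spheroids exposed to agents for 7 days before luminescence read.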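 As to viability, T/C: 100% = DMSO vehicle control viability.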 The following applies: for viability, T/C: stronger effect = lower value. In short, it runs like this: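 Multicellular complex spheroids of tumor cells with human endothelial cells (HUVEC) and mesenchymal stem cells; the LSD1 inhibitor iadademstat was combined with standard-of-care or investigational agents. Top concentration at or near clinical Cmax, half-log dilutions; final DMSO ≤0.25%.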

Setting [1] is: curve of first compound, second compound 0.1 µM.
Setting [2] is: curve of first compound, second compound 0.316 µM.
[3] abbreviates: curve of first compound, second compound 1 µM.
Setting [4] is: curve of first compound, second compound 3.16 µM.
The mark [5] stands for this setting: curve of first compound, second compound 10 µM.
The mark [6] stands for this setting: second compound 0.1 µM, first compound 0.00949 µM.
[7] abbreviates: second compound 0.1 µM, first compound 0.03 µM.
Setting [8] is: second compound 0.1 µM, first compound 0.0949 µM.
Setting [9] is: second compound 0.1 µM, first compound 0.3 µM.
Where [10] appears, read: second compound 0.316 µM, first compound 0.00949 µM.
Setting [11] is: second compound 0.316 µM, first compound 0.03 µM.
[12] abbreviates: second compound 0.316 µM, first compound 0.0949 µM.
[13] abbreviates: second compound 0.316 µM, first compound 0.3 µM.
Where [14] appears, read: second compound 1 µM, first compound 0.00949 µM.
The mark [15] stands for this setting: second compound 1 µM, first compound 0.03 µM.
The mark [16] stands for this setting: second compound 1 µM, first compound 0.0949 µM.
Setting [17] is: second compound 1 µM, first compound 0.3 µM.
Setting [18] is: second compound 3.16 µM, first compound 0.00949 µM.
[19] abbreviates: second compound 3.16 µM, first compound 0.03 µM.
[20] abbreviates: second compound 3.16 µM, first compound 0.0949 µM.
Where [21] appears, read: second compound 3.16 µM, first compound 0.3 µM.
Setting [22] is: second compound 10 µM, first compound 0.00949 µM.
Where [23] appears, read: second compound 10 µM, first compound 0.03 µM.
Where [24] appears, read: second compound 10 µM, first compound 0.0949 µM.
The mark [25] stands for this setting: second compound 10 µM, first compound 0.3 µM.

Take `Nc1ccn(C2OC(CO)C(O)C2(F)F)c(=O)n1` (stereo unspecified): the viability, T/C (compound 0.000949 µM) was 73.7% and 82.6%; the viability, T/C (compound 0.003 µM) is 73.8% and 71.3%; the viability, T/C (compound 0.00949 µM) is 64.3% and 67.8%; the viability, T/C (compound 0.03 µM) is 66% and 66.1%; the viability, T/C (compound 0.0949 µM) was 67.3% and 68.9%; the viability, T/C (compound 0.3 µM) was 64.6% and 74.8%. The IC50 (curve of compound) was above 300 nM.

Take `Nc1ncn(C2CC(O)C(CO)S2)c(=O)n1` (stereo unspecified) + NC1CC1c1ccc(-c2cccc(O)c2)cc1: the IC50 is, setting by setting: under setting [1], above 300 nM; under setting [2], above 300 nM; under setting [3], above 300 nM; under setting [4], above 300 nM; under setting [5], above 300 nM. For the same molecule, the viability, T/C runs as follows: (second compound 0.1 µM, first compound 0.000949 µM) 90.1%; (second compound 0.1 µM, first compound 0.003 µM) 91.7%; under setting [6], 82%; under setting [7], 76.2%; under setting [8], 82%; under setting [9], 63%. Moreover, the viability, T/C (second compound 0.316 µM, first compound 0.000949 µM) was 79.2%; the viability, T/C (second compound 0.316 µM, first compound 0.003 µM) is 83.6%; the viability, T/C under setting [10] is 86.3%; the viability, T/C under setting [11] is 67.9%; the viability, T/C under setting [12] was 53.5%; the viability, T/C under setting [13] is 57.8%. Also, the viability, T/C is, setting by setting: (second compound 1 µM, first compound 0.000949 µM) 85.3%; (second compound 1 µM, first compound 0.003 µM) 73.3%; under setting [14], 75.6%; under setting [15], 65.3%; under setting [16], 64.4%; under setting [17], 67.5%. Moreover, the viability, T/C reads like this: (second compound 3.16 µM, first compound 0.000949 µM) 70.5%; (second compound 3.16 µM, first compound 0.003 µM) 79.4%; under setting [18], 79.1%; under setting [19], 62.3%; under setting [20], 60.8%; under setting [21], 58.8%. Besides, the viability, T/C (second compound 10 µM, first compound 0.000949 µM) was 66.4%; the viability, T/C (second compound 10 µM, first compound 0.003 µM) was 65.1%; the viability, T/C under setting [22] was 60.9%; the viability, T/C under setting [23] is 66.5%; the viability, T/C under setting [24] is 62.7%; the viability, T/C under setting [25] is 58.9%.

Regarding `O=C(c1cc(Cc2n[nH]c(=O)c3ccccc23)ccc1F)N1CCN(C(=O)C2CC2)CC1`, the viability, T/C by setting is: (compound 0.0316 µM) 84.9% and 80.2%; (compound 0.1 µM) 85.2% and 85.3%; (compound 0.316 µM) 81.4% and 76.1%; (compound 1 µM) 81.5% and 85.4%; (compound 3.16 µM) 90.2% and 77%; (compound 10 µM) 87.5% and 68.8%. Also, the IC50 (curve of compound) is above 10000 nM.

Turning to `NS(=O)(=O)OCC1CC(n2ccc3c(NC4CCc5ccccc54)ncnc32)CC1O` (stereo unspecified) + NC1CCC(NC2CC2c2ccccc2)CC1, the IC50 was above 3000 nM under setting [1]; above 3000 nM under setting [2]; above 3000 nM under setting [3]; above 3000 nM under setting [4]; above 3000 nM under setting [5]. The viability, T/C under setting [6] is 149%; the viability, T/C under setting [7] is 125%; the viability, T/C under setting [8] is 77.5%; the viability, T/C under setting [9] is 84.7%; the viability, T/C (second compound 0.1 µM, first compound 0.949 µM) is 79.6%; the viability, T/C (second compound 0.1 µM, first compound 3 µM) is 74.8%. Also, the viability, T/C reads like this: under setting [10], 162%; under setting [11], 131%; under setting [12], 87.7%; under setting [13], 73.6%; (second compound 0.316 µM, first compound 0.949 µM) 77.5%; (second compound 0.316 µM, first compound 3 µM) 77.8%. The viability, T/C runs as follows: under setting [14], 164%; under setting [15], 115%; under setting [16], 82.4%; under setting [17], 66.5%; (second compound 1 µM, first compound 0.949 µM) 80.7%; (second compound 1 µM, first compound 3 µM) 75.5%. In addition, the viability, T/C runs as follows: under setting [18], 132%; under setting [19], 113%; under setting [20], 93.8%; under setting [21], 75.2%; (second compound 3.16 µM, first compound 0.949 µM) 69.8%; (second compound 3.16 µM, first compound 3 µM) 70.1%. Besides, the viability, T/C is 163% under setting [22]; 124% under setting [23]; 86.5% under setting [24]; 73.9% under setting [25]; 73.9% (second compound 10 µM, first compound 0.949 µM); 70.2% (second compound 10 µM, first compound 3 µM).

On to `Cn1ncnc1C1c2n[nH]c(=O)c3cc(F)cc(c23)NC1c1ccc(F)cc1` (stereo unspecified) + NC1CCC(NC2CC2c2ccccc2)CC1, for which the IC50 reads like this: under setting [1], above 100 nM; under setting [2], above 100 nM; under setting [3], above 100 nM; under setting [4], above 100 nM; under setting [5], above 100 nM. Besides, the viability, T/C is 93% (second compound 0.1 µM, first compound 0.000316 µM); 104% (second compound 0.1 µM, first compound 0.001 µM); 88.4% (second compound 0.1 µM, first compound 0.00316 µM); 94.9% (second compound 0.1 µM, first compound 0.01 µM); 88.6% (second compound 0.1 µM, first compound 0.0316 µM); 90.4% (second compound 0.1 µM, first compound 0.1 µM). For the same molecule, the viability, T/C is, setting by setting: (second compound 0.316 µM, first compound 0.000316 µM) 86.9%; (second compound 0.316 µM, first compound 0.001 µM) 98.3%; (second compound 0.316 µM, first compound 0.00316 µM) 103%; (second compound 0.316 µM, first compound 0.01 µM) 91.8%; (second compound 0.316 µM, first compound 0.0316 µM) 82.8%; (second compound 0.316 µM, first compound 0.1 µM) 86.8%. Moreover, the viability, T/C is 91.7% (second compound 1 µM, first compound 0.000316 µM); 90.9% (second compound 1 µM, first compound 0.001 µM); 83.5% (second compound 1 µM, first compound 0.00316 µM); 84.3% (second compound 1 µM, first compound 0.01 µM); 85% (second compound 1 µM, first compound 0.0316 µM); 83% (second compound 1 µM, first compound 0.1 µM). In addition, the viability, T/C reads like this: (second compound 3.16 µM, first compound 0.000316 µM) 83.4%; (second compound 3.16 µM, first compound 0.001 µM) 87.7%; (second compound 3.16 µM, first compound 0.00316 µM) 79.9%; (second compound 3.16 µM, first compound 0.01 µM) 98.1%; (second compound 3.16 µM, first compound 0.0316 µM) 76.5%; (second compound 3.16 µM, first compound 0.1 µM) 93.2%. For the same molecule, the viability, T/C was 98.6% (second compound 10 µM, first compound 0.000316 µM); 86.7% (second compound 10 µM, first compound 0.001 µM); 83.5% (second compound 10 µM, first compound 0.00316 µM); 88.1% (second compound 10 µM, first compound 0.01 µM); 85.3% (second compound 10 µM, first compound 0.0316 µM); 81.7% (second compound 10 µM, first compound 0.1 µM).

With `COc1cc(C2c3cc4c(cc3C(OC3OC5COC(C)OC5C(O)C3O)C3COC(=O)C23)OCO4)cc(OC)c1O` (stereo unspecified), the viability, T/C runs as follows: (compound 0.00949 µM) 84.9% and 100%; (compound 0.03 µM) 79.2% and 82.9%; (compound 0.0949 µM) 72.4% and 64.1%; (compound 0.3 µM) 83.9% and 64.4%; (compound 0.949 µM) 62.5% and 66.3%; (compound 3 µM) 54.7% and 53.3%. In addition, where the note is “curve of compound”, the IC50 was above 3000 nM.
